Test results from patent US12357603B2, “Acyl sulfonamides for treating cancer” (Bayer Aktiengesellschaft, priority 2019, dated 2025).
Read-outs that look alike come from different tables or passages of the source.

What was measured:
[1] = target: Recombinant human His-tagged Kat6a protein (amino acids 194-810) (Homo sapiens (Human), UniProt Q92794); assay: Kat6a activity assay (TR-FRET, acetylation of biotinylated Histone-H4-derived peptide); format: biochemical; details: 60 mins at 22° C., read-out: KAT6A-DPF/HAT domain IC50 [mol/l] (arithmetic mean)
Sequence of Recombinant human His-tagged Kat6a protein (amino acids 194-810) (Q92794 194-810): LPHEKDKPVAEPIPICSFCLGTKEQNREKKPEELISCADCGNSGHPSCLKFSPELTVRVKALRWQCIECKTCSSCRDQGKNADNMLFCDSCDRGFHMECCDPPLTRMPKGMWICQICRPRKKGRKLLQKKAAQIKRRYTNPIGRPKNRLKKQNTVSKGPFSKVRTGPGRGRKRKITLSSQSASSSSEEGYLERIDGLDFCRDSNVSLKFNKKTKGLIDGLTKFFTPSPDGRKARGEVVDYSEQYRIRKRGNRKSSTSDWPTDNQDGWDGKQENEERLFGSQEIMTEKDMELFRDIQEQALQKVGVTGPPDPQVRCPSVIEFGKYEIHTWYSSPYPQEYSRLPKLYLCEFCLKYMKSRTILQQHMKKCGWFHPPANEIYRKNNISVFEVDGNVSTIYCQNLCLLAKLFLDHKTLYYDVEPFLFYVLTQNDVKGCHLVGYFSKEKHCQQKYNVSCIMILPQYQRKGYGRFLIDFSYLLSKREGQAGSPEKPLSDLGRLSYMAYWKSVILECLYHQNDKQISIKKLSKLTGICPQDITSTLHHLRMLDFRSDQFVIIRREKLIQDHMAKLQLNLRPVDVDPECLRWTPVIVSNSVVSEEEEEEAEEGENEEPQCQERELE
In short: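 TR-FRET read-out of H4 K8 acetylation, using anti-acetyl-K8 antibody and streptavidin acceptor, after anacardic acid stop; IC50 from four-parameter regression normalized to DMSO. Reaction: recombinant human Kat6a aa 194-810 (insect-cell derived), 220 nM H4 1-24 peptide, 600 nM acetyl-CoA, pH 8, 22 °C, 60 min, compounds 0.01-20 μM.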

[2] = target: Recombinant human GST-tagged Kat6b protein (431-end) (Homo sapiens, UniProt Q8WYB5); assay: Kat6b activity assay (TR-FRET, acetylation of biotinylated Histone-H4-derived peptide); format: biochemical; details: 30 mins at 22° C., read-out: KAT6B activity assay IC50 [mol/l] (arithmetic mean)
Sequence of Recombinant human GST-tagged Kat6b protein (431-end) (Homo sapiens, UniProt Q8WYB5) (Q8WYB5 whole entry, looked up): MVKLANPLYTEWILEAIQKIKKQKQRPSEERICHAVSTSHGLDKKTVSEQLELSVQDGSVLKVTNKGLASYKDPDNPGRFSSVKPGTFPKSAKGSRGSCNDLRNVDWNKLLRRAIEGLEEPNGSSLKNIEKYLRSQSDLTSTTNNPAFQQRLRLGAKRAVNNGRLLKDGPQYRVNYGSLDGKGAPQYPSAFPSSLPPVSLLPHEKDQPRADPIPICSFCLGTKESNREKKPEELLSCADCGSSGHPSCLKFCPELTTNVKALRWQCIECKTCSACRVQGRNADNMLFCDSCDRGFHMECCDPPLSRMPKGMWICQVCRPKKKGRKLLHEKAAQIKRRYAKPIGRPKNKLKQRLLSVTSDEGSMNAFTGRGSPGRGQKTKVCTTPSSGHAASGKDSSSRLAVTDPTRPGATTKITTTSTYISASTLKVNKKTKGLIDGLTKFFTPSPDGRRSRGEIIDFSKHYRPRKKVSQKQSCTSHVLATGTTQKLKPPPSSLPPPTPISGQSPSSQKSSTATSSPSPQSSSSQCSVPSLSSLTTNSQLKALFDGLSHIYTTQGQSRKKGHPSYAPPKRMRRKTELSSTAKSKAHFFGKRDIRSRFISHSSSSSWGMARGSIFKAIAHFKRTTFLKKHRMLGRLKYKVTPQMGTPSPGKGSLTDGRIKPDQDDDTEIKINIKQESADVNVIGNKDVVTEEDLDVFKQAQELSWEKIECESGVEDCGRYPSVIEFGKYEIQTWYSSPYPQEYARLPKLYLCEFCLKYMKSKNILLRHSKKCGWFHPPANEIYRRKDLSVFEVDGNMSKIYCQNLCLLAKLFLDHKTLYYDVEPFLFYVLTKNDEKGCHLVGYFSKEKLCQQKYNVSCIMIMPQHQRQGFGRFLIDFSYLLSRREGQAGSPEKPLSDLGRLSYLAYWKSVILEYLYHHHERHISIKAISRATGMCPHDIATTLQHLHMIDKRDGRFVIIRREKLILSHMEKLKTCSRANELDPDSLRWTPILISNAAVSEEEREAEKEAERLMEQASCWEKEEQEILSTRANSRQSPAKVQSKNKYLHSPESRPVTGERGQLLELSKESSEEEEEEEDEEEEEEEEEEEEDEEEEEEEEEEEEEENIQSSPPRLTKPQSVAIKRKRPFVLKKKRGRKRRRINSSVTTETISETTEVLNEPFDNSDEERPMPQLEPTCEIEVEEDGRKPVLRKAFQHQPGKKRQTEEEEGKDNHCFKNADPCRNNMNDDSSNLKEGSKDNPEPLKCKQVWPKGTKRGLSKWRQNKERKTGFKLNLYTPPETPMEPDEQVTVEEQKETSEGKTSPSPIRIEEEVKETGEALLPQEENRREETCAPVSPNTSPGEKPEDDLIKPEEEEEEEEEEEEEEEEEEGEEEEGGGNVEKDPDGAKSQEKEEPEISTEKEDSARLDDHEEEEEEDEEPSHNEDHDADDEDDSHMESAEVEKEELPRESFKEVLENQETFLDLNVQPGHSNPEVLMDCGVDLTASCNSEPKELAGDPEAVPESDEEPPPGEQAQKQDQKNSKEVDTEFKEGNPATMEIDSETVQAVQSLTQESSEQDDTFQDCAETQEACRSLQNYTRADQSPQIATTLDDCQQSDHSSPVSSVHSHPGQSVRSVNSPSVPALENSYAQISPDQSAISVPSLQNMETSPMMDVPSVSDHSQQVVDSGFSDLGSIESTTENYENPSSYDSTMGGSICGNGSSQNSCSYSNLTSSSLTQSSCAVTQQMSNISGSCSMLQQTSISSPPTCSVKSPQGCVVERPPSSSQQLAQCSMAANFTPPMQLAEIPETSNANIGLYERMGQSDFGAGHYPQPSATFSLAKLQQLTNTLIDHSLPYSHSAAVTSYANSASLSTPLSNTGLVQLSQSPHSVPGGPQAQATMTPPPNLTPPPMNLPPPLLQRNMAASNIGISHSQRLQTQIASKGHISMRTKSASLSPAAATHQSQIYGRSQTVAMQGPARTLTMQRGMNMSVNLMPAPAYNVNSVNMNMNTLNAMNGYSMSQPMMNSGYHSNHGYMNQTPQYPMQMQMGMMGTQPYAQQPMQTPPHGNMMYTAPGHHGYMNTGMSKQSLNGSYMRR

[3] = system: ESR1 transcription (luciferase signal in MVLN cells); assay: Repression of ESR1 transcription, luciferase reporter in MVLN cells; format: cell-based; details: inhibition of luciferase signal in MVLN cells, arithmetic mean
In short: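 Luminescence from an ER-driven Vitellogenin A2 element–luciferase reporter was measured after 24 h of treatment of MVLN cells, in duplicate wells. Alamar Blue (2 h, 530/590 nm) served as a cell-density control.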

[4] = system: ZR-75-1 cells; assay: Proliferation assay ZR-75-1 (Alamar Blue, 144 h); format: cell-based; details: arithmetic mean, read-out: ZR75-1 proliferation assay, EC50 [M] (arithmetic mean)
In short: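 Alamar Blue fluorescence (590 nm, 2 h reagent step) measured viability after 144 h compound exposure at 37 °C, 5% CO2. Compounds spanned 2.0×10E-5 to 2.0×10E-9 M in 9 dilutions at 0.2% DMSO, in triplicate, added 24 h after plating 3000 cells/well in RPMI 1640 plus 2.5% FBS.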

[5] = system: MDA-MB-436 cells; assay: Proliferation assay MDA-MB-436, negative control cell line (Alamar Blue, 144 h); format: cell-based; details: arithmetic mean
In short: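 Viability read as Alamar Blue fluorescence (590 nm, 2 h) after 144 h compound exposure at 37 °C, 5% CO2. Cells seeded at 3000 per well in 2.5% FBS DMEM/Ham's F12, dosed a day later over 2.0×10E-9–2.0×10E-5 M in 9 steps with 0.2% DMSO, in triplicate.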

[6] = system: DMS 53 cells; assay: Proliferation assay DMS 53 (Alamar Blue, 144 h); format: cell-based; details: Homo sapiens, DMS53, small cell lung cancer, read-out: proliferation assays
Description: (§1) Assessment of the Anti-Proliferative Effect of Compounds in Different Cell Lines
(§2) To determine further cancer indications that respond to treatment with KAT6A or KAT6B3 inhibitors various cell lines carrying a KAT6A and/or KAT6B3 focal amplification or high KAT6A and/or KAT6B3 protein expression were used for proliferation assays with selected compounds.
(§3) 24 hours later, cells were treated with compounds (stock solution, 10 mM in DMSO) using the HP D300 Digital Dispenser in a concentration range of 2.0×10E-5 M to 2.0×10E-9 M in a single-dot curve with 9 dilutions and a DMSO concentration of 0.2%. Each sample was prepared as triplicate and rim wells were excluded. Plates were incubated at 37° C. and 5% CO2 for 144 h. Cell viability was measured by adding 10 μL of Alamar Blue Reagent (Invitrogen #DAL 1100) and plates were incubated for 2 h at 37° C. and 5% CO2. Fluorescence was measured at 590 nm wavelength with a Tecan Spark or Victor X3 MTP-Reader (PerkinElmer).

[7] = system: LNCAP cells; assay: Proliferation assay LNCAP (Alamar Blue, 144 h); format: cell-based; details: Homo sapiens, prostate carcinoma, 10 nM R1881, read-out: proliferation assays
Description: as §1, §2, §3

[8] = system: JMSU-1 cells; assay: Proliferation assay JMSU-1 (Alamar Blue, 144 h); format: cell-based; details: JMSU1, bladder carcinoma, read-out: proliferation assays
Description: as §1, §2, §3

[9] = system: THP-1 cells; assay: Proliferation assay THP-1 (Alamar Blue, 144 h); format: cell-based; details: Homo sapiens, THP1, acute monocytic leukemia, read-out: proliferation assays
Description: as §1, §2, §3

[10] = system: EFM-19 cells; assay: Proliferation assay EFM-19 (Alamar Blue, 144 h); format: cell-based; details: Homo sapiens, EFM19, breast carcinoma, read-out: proliferation assays
Description: as §1, §2, §3

[11] = system: COLO 684 cells; assay: Proliferation assay COLO 684 (Alamar Blue, 144 h); format: cell-based; details: Homo sapiens, COLO684, uterus adenocarcinoma, read-out: proliferation assays
Description: as §1, §2, §3

[12] = target: Recombinant human GST-tagged Kat6b protein (431-end); assay: Kat6b activity assay (TR-FRET, acetylation of biotinylated Histone-H4-derived peptide); format: biochemical; details: 30 mins at 22° C., read-out: KAT6B activity assay IC50 [mol/l] (arithmetic mean)
[13] = Homo sapiens, MDA-MB-436, 144 h

For `CC(C)c1ccc(OCC2CC2(F)F)c(S(=O)(=O)NC(=O)c2cc3ccc(N(C)C)cc3o2)c1` (racemic) [Example 186, N-((2-((2,2-difluorocyclopropyl)methoxy)-5-isopropylphenyl)sulfonyl)-6-(dimethylamino)benzofuran-2-carboxamide (rac)], the IC50 [1] was 8.47 nM, the IC50 [2] was 26.1 nM and the IC50 ([3]; Homo sapiens, MVLN) was 23.6 nM. For the same compound, the EC50 ([4]; Homo sapiens, ZR-75-1, 144 h) was 5.59e-08 M and the EC50 [5, 13] was > 20 µM.

Work on `CN(C)c1ccc2cc(C(=O)NS(=O)(=O)c3ccccc3-c3ccccc3)oc2c1` [Example 14, N-([1,1′-Biphenyl]-2-sulfonyl)-6-(dimethylamino)-1-benzofuran-2-carboxamide] yielded an IC50 ([3]; Homo sapiens, MVLN) of 121 nM, an EC50 [4] of 1.2e-07 M and an EC50 [5, 13] of 18.4 µM. It also gave an EC50 [6] of 490 nM, an EC50 [7] of 4.16 µM and an EC50 [8] of 605 nM. It also gave an EC50 [9] of 238 nM, an EC50 [10] of 223 nM and an EC50 [11] of 184 nM.

Work on `CN(C)c1ccc2cc(C(=O)NS(=O)(=O)c3cccc4c3OC(F)(F)C(F)(F)O4)oc2c1` [Example 134, 6-(Dimethylamino)-N-(2,2,3,3-tetrafluoro-2,3-dihydro-1,4-benzodioxine-5-sulfonyl)-1-benzofuran-2-carboxamide] yielded an IC50 [1] of 30.7 nM, an IC50 [2] of 25.9 nM and an IC50 [3] of 76.8 nM. For the same compound, the EC50 [4] was 1.26e-07 M and the EC50 [5] was > 20 µM.

For `CCOc1ccc(CC)cc1S(=O)(=O)NC(=O)c1cc2ccc(N(C)C)cc2o1` [Example 143, 6-(Dimethylamino)-N-(2-ethoxy-5-ethylbenzene-1-sulfonyl)-1-benzofuran-2-carboxamide], the IC50 [1] was 29.3 nM, the IC50 [12] was 43.1 nM and the IC50 ([3]; Homo sapiens, MVLN) was 40.8 nM. For the same compound, the EC50 ([4]; Homo sapiens, ZR-75-1, 144 h) was 6.42e-08 M and the EC50 [5, 13] was > 20 µM.

In the case of `CCc1cccc(OC)c1S(=O)(=O)NC(=O)c1cc2ccc(N(C)C)cc2o1` [Example 147, 6-(Dimethylamino)-N-(2-ethyl-6-methoxybenzene-1-sulfonyl)-1-benzofuran-2-carboxamide], the IC50 [1] is reported as 98.6 nM, the IC50 [12] is reported as 69.2 nM and the IC50 ([3]; Homo sapiens, MVLN) is reported as 86.8 nM. The EC50 ([4]; Homo sapiens, ZR-75-1, 144 h) was 7.83e-08 M and the EC50 [5, 13] was > 20 µM.

Work on `COc1ccc(Br)cc1S(=O)(=O)NC(=O)c1cc2ccc(N(C)C)cc2o1` [Example 148, N-(5-Bromo-2-methoxybenzene-1-sulfonyl)-6-(dimethylamino)-1-benzofuran-2-carboxamide] yielded an IC50 [1] of 104 nM, an IC50 [12] of 68 nM and an IC50 ([3]; Homo sapiens, MVLN) of 121 nM. The EC50 ([4]; Homo sapiens, ZR-75-1, 144 h) was 1.28e-07 M and the EC50 [5, 13] was > 20 µM.

Work on `COc1ccc(Cl)cc1S(=O)(=O)NC(=O)c1cc2ccc(N(C)C)cc2o1` [Example 149, N-(5-chloro-2-methoxybenzene-1-sulfonyl)-6-(dimethylamino)-1-benzofuran-2-carboxamide] yielded an IC50 [1] of 123 nM, an IC50 [12] of 379 nM and an IC50 ([3]; Homo sapiens, MVLN) of 138 nM. The EC50 ([4]; Homo sapiens, ZR-75-1, 144 h) was 1.74e-07 M and the EC50 [5, 13] was > 20 µM.

Work on `CN(C)c1ccc2cc(C(=O)NS(=O)(=O)c3cc(C(C)(C)C)ccc3OCc3ccccc3)oc2c1` [Example 179, N-[(2-(Benzyloxy)-5-(tert-butyl)phenyl)sulfonyl]-6-(dimethylamino)benzofuran-2-carboxamide] yielded an IC50 [1] of 8.95 nM, an IC50 [12] of 19.4 nM and an IC50 ([3]; Homo sapiens, MVLN) of 15.9 nM. The EC50 ([4]; Homo sapiens, ZR-75-1, 144 h) was 6.79e-08 M and the EC50 [5, 13] was > 20 µM.

Compound `CN(C)c1ccc2cc(C(=O)NS(=O)(=O)c3cc(C(C)(C)C)ccc3OCC3CC3)oc2c1` [Example 180, N-((5-(tert-butyl)-2-(cyclopropylmethoxy)phenyl)sulfonyl)-6-(dimethylamino)benzofuran-2-carboxamide] has an IC50 [1] of 4.36 nM, an IC50 [12] of 21.3 nM and an IC50 ([3]; Homo sapiens, MVLN) of 22.9 nM. The EC50 ([4]; Homo sapiens, ZR-75-1, 144 h) was 3.77e-08 M and the EC50 [5, 13] was > 20 µM.

`CN(C)c1ccc2cc(C(=O)NS(=O)(=O)c3cc(C(C)(C)C)ccc3OCC(F)(F)F)oc2c1` [Example 181, N-[(5-(tert-butyl)-2-(2,2,2-trifluoroethoxy)phenyl)sulfonyl]-6-(dimethylamino)benzofuran-2-carboxamide] gave an IC50 [1] of 11.8 nM, an IC50 [12] of 43.5 nM and an IC50 ([3]; Homo sapiens, MVLN) of 30.1 nM. For the same compound, the EC50 ([4]; Homo sapiens, ZR-75-1, 144 h) was 9.93e-08 M and the EC50 [5, 13] was > 20 µM.
